Measurements as given in publication PMC7377239, “Cardiovascular Effects of Polychlorinated Biphenyls and Their Major Metabolites” (Environmental Health Perspectives, 2020).
Where a name gives a salt, the structure may show the parent alone.

Tested on: iPSC-CMs, iPSC-ECs and HUVECs phenotypes
Assay: ToxPi 2.0 integration of POD values and physicochemical descriptors
Parameters: species or system human
Conditions: ToxPi-scaled (0-1) score; for huvec.cyto.24hr / huvec.mito.24hr / huvec.mitoint.24hr / huvec.nma.24hr / huvec.tc.24hr / huvec.mtl.18hr / huvec.tlps.18hr / huvec.tta.18hr / huvec.ttl.18hr: HUVECs; for huvec.mtl.18hr / huvec.tlps.18hr / huvec.tta.18hr / huvec.ttl.18hr / endo.mtl.18hr / endo.tlps.18hr / endo.tta.18hr / endo.ttl.18hr: tube formation; for cm.amp.avg.90min / cm.amp.cv.90min / cm.bpm.90min / cm.cam.90min / cm.decay.rise.90min / cm.mii.90min / cm.mito.90min / cm.spacing.cv.90min / cm.tc.90min / cm.amp.avg.24hrs / cm.amp.cv.24hrs / cm.bpm.24hrs / cm.cam.24hrs / cm.decay.rise.24hrs / cm.mii.24hrs / cm.mito.24hrs / cm.spacing.cv.24hrs / cm.tc.24hrs: iPSC cardiomyocytes; for endo.cyto.24hr / endo.mito.24hr / endo.mitoint.24hr / endo.nma.24hr / endo.tc.24hr / endo.mtl.18hr / endo.tlps.18hr / endo.tta.18hr / endo.ttl.18hr: iPSC endothelial cells
From the text: Phenotypic responses were quantitatively assessed using concentration–response modeling as detailed elsewhere ([Sirenko et al. 2017]). Briefly, phenotypic readouts were normalized to vehicle controls and fit to a four-parameter logistic model in R studio software (version 3.1.1; R Development Core Team). Following EPA guidance on dose–response modeling, a cutoff of one standard deviation across means of vehicle control (i.e., 0.5% vol/vol DMSO in cell culture media) wells was applied to determine the point-of-departure (POD) values ([U.S. EPA 2012]). In the absence of a concentration–response, the highest tested concentration (i.e., 100μM ) was assigned as “no observable adverse effect level.” The concentration–response assessment R script, as well as templates for vehicle and concentration–response data, are available as a supplement to Sirenko et al. ([2017]). The ability of physicochemical properties to predict differences in PODs were evaluated by multiregression and mixed-effects modeling using R.
POD values were then integrated using ToxPi 2.0 ([Marvel et al. 2018]) software. In ToxPi, each slice is representative of cell type– and time-point–specific phenotypes. The area of each slice is proportional to the relative value (e.g., bioactivity or physicochemical descriptor value) of the chemical within the data set. ToxPi scores were used to rank PCBs and their metabolites according to their overall bioactivity and to determine variability in total observable biological responses and chemical characteristics for each major metabolite class and chlorination status (mono-, hexa-chlorinated). Additional visualizations such as dumbbell and principal components analysis plots were generated in R Studio (version 1.1.456; R version 3.5.1; R Development Core Team) using the ggplot2 package.

Structure (SMILES)	huvec.cyto.24hr	huvec.mito.24hr	huvec.mitoint.24hr	huvec.nma.24hr	huvec.tc.24hr	huvec.mtl.18hr	huvec.tlps.18hr	huvec.tta.18hr	huvec.ttl.18hr	cm.amp.avg.90min	cm.amp.cv.90min	cm.bpm.90min	cm.cam.90min	cm.decay.rise.90min	cm.mii.90min	cm.mito.90min	cm.spacing.cv.90min	cm.tc.90min	cm.amp.avg.24hrs	cm.amp.cv.24hrs	also measured
Oc1ccc(-c2cccc(Cl)c2)cc1Cl [4-OH-PCB 11]	0.4438	0.5256	0.5773	0.5884	0.4438	0.5918	0.1971	0	0.4794	0.7012	0.353	0.1603	0.5301	0.5246	0.417	0.3722	0.09289	0.417	0	0.6637	cm.bpm.24hrs: 0.3605; cm.cam.24hrs: 0.33; cm.decay.rise.24hrs: 0.2928; cm.mii.24hrs: 0.2219; cm.mito.24hrs: 0.5458; cm.spacing.cv.24hrs: 0.4379; cm.tc.24hrs: 0.5639; endo.cyto.24hr: 0.145; endo.mito.24hr: 0.145; endo.mitoint.24hr: 0.2813; endo.nma.24hr: 0.4122; endo.tc.24hr: 0.08397; endo.mtl.18hr: 0.181; endo.tlps.18hr: 0.1031; endo.tta.18hr: 0.1681; endo.ttl.18hr: 0.1683
Oc1cc(Cl)c(-c2cc(Cl)ccc2Cl)cc1Cl [4-OH-PCB 52]	0.4769	0.5351	0.7457	0	0.4769	0.5555	0.604	0.1308	0.07185	0.2901	0.2696	1	1	0.2017	0.2919	1	0.1401	1	0.1949	0.09883	cm.bpm.24hrs: 0.4544; cm.cam.24hrs: 0.15; cm.decay.rise.24hrs: 0.2583; cm.mii.24hrs: 0.1136; cm.mito.24hrs: 0.2161; cm.spacing.cv.24hrs: 0.3488; cm.tc.24hrs: 0.2027; endo.cyto.24hr: 0.3535; endo.mito.24hr: 0.3535; endo.mitoint.24hr: 0.1136; endo.nma.24hr: 0.0802; endo.tc.24hr: 0.3161; endo.mtl.18hr: 0.2459; endo.tlps.18hr: 0.3982; endo.tta.18hr: 0.1729; endo.ttl.18hr: 0.1737
COc1ccc(-c2cccc(Cl)c2)cc1Cl [4-OMe-PCB 11, 4-methoxy-3,3′-dichlorobiphenyl]	0.2668	0.3305	0.3626	0.3507	0.2668	0.5304	0.2567	0	0.6633	0.6528	0.2486	0.4773	0.4476	0.5303	0.1771	0.5027	0.1369	0.5138	0.152	0.06047	cm.bpm.24hrs: 0.441; cm.cam.24hrs: 0.1329; cm.decay.rise.24hrs: 0.2452; cm.mii.24hrs: 0.5873; cm.mito.24hrs: 0.2518; cm.spacing.cv.24hrs: 0.1755; cm.tc.24hrs: 0.2526; endo.cyto.24hr: 0; endo.mito.24hr: 0; endo.mitoint.24hr: 0; endo.nma.24hr: 0; endo.tc.24hr: 0; endo.mtl.18hr: 0; endo.tlps.18hr: 0.2016; endo.tta.18hr: 1; endo.ttl.18hr: 1
COc1cc(Cl)c(-c2cc(Cl)ccc2Cl)cc1Cl [4-OMe-PCB 52, 4-methoxy-2,2′,5,5′-tetrachlorobiphenyl]	0.503	0.6182	0.7163	0.4778	0.503	0.3949	0.3694	0	0	0.7151	0.1921	0.6456	0.5317	0.5533	0.2088	0.6868	0.09243	0.4554	0	0.07106	cm.bpm.24hrs: 0.2075; cm.cam.24hrs: 0.1487; cm.decay.rise.24hrs: 0.2631; cm.mii.24hrs: 0.763; cm.mito.24hrs: 0.2211; cm.spacing.cv.24hrs: 0.2504; cm.tc.24hrs: 0.2416; endo.cyto.24hr: 0.1456; endo.mito.24hr: 0.1456; endo.mitoint.24hr: 0; endo.nma.24hr: 0.1018; endo.tc.24hr: 0.1602; endo.mtl.18hr: 0.06827; endo.tlps.18hr: 0.09286; endo.tta.18hr: 0.06026; endo.ttl.18hr: 0.05573
O=S(=O)(O)Oc1ccc(-c2cccc(Cl)c2)cc1Cl [4-PCB 11 sulfate]	0.07428	0.09457	0.4402	0.4481	0.07428	0.4352	0.2468	0	0	0.5438	0.207	0.3056	0	0.417	0	0	0.1011	0	0.2154	0.3772	cm.bpm.24hrs: 0.2853; cm.cam.24hrs: 0.3798; cm.decay.rise.24hrs: 0.3284; cm.mii.24hrs: 0.1874; cm.mito.24hrs: 0.571; cm.spacing.cv.24hrs: 0.2596; cm.tc.24hrs: 0.6332; endo.cyto.24hr: 0; endo.mito.24hr: 0; endo.mitoint.24hr: 0; endo.nma.24hr: 0; endo.tc.24hr: 0; endo.mtl.18hr: 0.1436; endo.tlps.18hr: 0.3311; endo.tta.18hr: 0.1419; endo.ttl.18hr: 0.1256
